We go through two molecules from publication PMC11527646, “Pharmacological blockade of the mast cell MRGPRX2 receptor supports investigation of its relevance in skin disorders” (Frontiers in Immunology, 2024).

Where only a bound is given, the exact number is not on record here.

Data set [1] concerns the target T1, MRGPRX2 (Homo sapiens, UniProt Q96LB1).
T1 sequence (Q96LB1 1-330): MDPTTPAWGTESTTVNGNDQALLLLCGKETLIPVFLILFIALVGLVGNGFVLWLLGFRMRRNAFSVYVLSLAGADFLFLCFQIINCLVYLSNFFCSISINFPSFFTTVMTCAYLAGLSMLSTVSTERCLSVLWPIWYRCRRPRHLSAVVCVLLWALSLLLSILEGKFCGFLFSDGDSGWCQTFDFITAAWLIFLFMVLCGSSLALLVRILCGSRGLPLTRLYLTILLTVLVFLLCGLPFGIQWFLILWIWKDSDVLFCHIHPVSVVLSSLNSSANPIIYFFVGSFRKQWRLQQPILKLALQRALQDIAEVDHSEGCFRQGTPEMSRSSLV
Kind of data set: Human ex vivo skin microdialysis, Substance P-stimulated histamine release. In kind it is cell-based. Conditions: Substance P 50 μM; three donors.
Method: Microdialysis probes with a 3,000-kDa molecular weight cutoff (EP Medical, Copenhagen, Denmark) were primed for 1 h using a basal perfusate consisting of 0.1% human serum albumin in piperazine-N,N′-bis(2-ethanesulfonic acid) (PIPES) buffer to minimize non-specific adsorption to probe components.
Skin specimens measuring approximately 4 cm × 14 cm were excised from the parent skin sample, and subcutaneous fat was removed mechanically. The skin specimens were fixated on Styrofoam and guide cannulas (21G) were inserted intradermally at least 1 cm apart and ≥ 1 cm from the edge of the skin specimen. Ten probes were introduced into each skin specimen by means of the guide cannulas with an intradermal probe span of 20 mm. Probes were perfused at a flow rate of 3.0 μL/min (used throughout the experiment) for 30 min using basal perfusate in order to remove any unspecific histamine release caused by insertion trauma.
Next, the dialysate was collected for 10 min to assess basal skin histamine levels (“basal”). The probes were then switched to perfusion with a perfusate containing antagonists at different concentrations for 60 min to pre-treat the skin specimens and evaluate potential off-target effects, which could present as histamine release caused by antagonist itself (“pre-treatment”). […] Histamine in the dialysates was quantified as described above. […]

Data set [2] addresses T2, monkey MRGPRX2 (Rhesus macaques) (Macaca mulatta, UniProt Q4QXU5).
T2 construct: expressed in transfected cells; host or cells: U2OS transduced with BacMam virus
As to the kind of experiment: Calcium mobilization in BacMam-transduced U2OS cells. It counts as cell-based. Conditions: for Antagonist activity: likely due to receptor desensitization upon activation and not real antagonism. As for the experimental part:
(§1) Cell culture reagents were purchased from Thermo Fisher Scientific unless otherwise stated. The LAD2 human mast cell line was in-licensed from National Institutes of Health (NIH) and routinely cultured in StemPro™-34 SFM with nutrient supplement, 1× GlutaMax™, and recombinant human SCF (100 ng/mL). HEK293-MRGPRX2/Gα15 cells were cultured in DMEM containing 10% FBS. The parental U2OS cells were culture in DMEM/F-12 containing 10% FBS. BacMam virus containing human MRGPRX2 gene or animal orthologs [mouse Mrgprb2 (Gene ID: 243979), rat Mrgprb3 (Gene ID: 691194), dog MRGPRX2 (Gene ID: 102125889), cynomolgus monkey MRGPRX2 (Gene ID: 692078), and rhesus monkey MRGPRX2] were used to transduce U2OS cells for transient expression.
(§2) Supplemental Table 1: Compound A and Compound B are human MRGPRX2 selective antagonists. Antagonist and agonist activities of the two compounds were determined in calcium mobilization assays for human MRGPRX2 and its animal orthologs from various species. The activities were measured in […] (Molecular Devices) instrument using U2OS cells transduced with BacMam virus for transient expression of the relevant receptors. Data are presented as mean ± SEM when applicable.
(§3) Compound A and Compound B up to the highest concentration (100 µM) tested. In the antagonist […]
(§4) Compound A and B, respectively. […]
MRGPRX2 and Gα15 proteins (Fig. 1). On monkey MRGPRX2 receptors (both Cynomolgus […]
receptor desensitization upon activation and not real antagonism. […]

Data set [3] relates to ion channel and enzyme targets. As to the kind of experiment: In vitro assays of the human safety prediction panel. Particulars: data not shown. The source says: Among them, the NK1 receptor with which SP is the canonical and high-affinity endogenous ligand.
Data set [4] addresses T1, MRGPRX2. Kind of data set: Ca2+ mobilization assay (FLIPR TETRA) in HEK293-MRGPRX2/Gα15 cells. It counts as cell-based. Details: expressed in transfected cells. Particulars: for EC50: agonist mode, highest concentration tested 30 μM, read-out: Activation of Ca2+ Mobilization EC50. As for the experimental part: A Ca^2+ mobilization assay was used to screen for small-molecule compounds with agonist or antagonist activity against human MRGPRX2 using HEK293-MRGPRX2/Gα15 cells. Two million small-molecule compounds in GSK collection were screened at single concentration of 10 μM on FLIPR^TETRA (Molecular Devices) instruments in dual detection mode for both activation and inhibition activities. Cortistatin 14 at approximately EC80 concentration was used as the activation ligand for the inhibition phase of the high-throughput screening. Compounds of interest were followed up and characterized in concentration response curves to determine their mode of activity, potency, and selectivity.
Figure 1 Identification of two structurally distinct MRGPRX2 antagonists: Compound (A) and Compound (B). Calcium mobilization assays were performed in FLIPR^TETRA (Molecular Devices) with two novel MRGPRX2 antagonists using HEK293 cells overexpressing MRGPRX2 and Gα15 proteins. […] Dose-dependent inhibition (A) of Cortistatin 14–mediated MRGPRX2 activation was measured, and antagonist potencies (B) are presented as mean ± SEM of 66 or 22 independent experiments for Compound A and Compound B, respectively.

For a further data set, the target named is T3, C3aR1 (Homo sapiens, UniProt Q16581).
T3 sequence (Q16581 1-482): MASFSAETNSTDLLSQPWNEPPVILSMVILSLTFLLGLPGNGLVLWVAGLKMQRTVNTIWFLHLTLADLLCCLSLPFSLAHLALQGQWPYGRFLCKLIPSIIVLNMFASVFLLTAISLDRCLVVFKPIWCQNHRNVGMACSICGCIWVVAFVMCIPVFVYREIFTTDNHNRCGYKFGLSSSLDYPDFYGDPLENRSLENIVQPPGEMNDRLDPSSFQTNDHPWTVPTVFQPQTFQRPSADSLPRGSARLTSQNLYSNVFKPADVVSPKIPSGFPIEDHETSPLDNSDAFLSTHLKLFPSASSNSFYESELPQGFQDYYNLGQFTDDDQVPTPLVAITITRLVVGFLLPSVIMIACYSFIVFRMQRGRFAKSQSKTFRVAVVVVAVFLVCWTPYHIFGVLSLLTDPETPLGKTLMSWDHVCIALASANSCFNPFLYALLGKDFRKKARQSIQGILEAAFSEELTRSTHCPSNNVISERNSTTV
Particulars: for Effect on C3a-stimulated LAD2 degranulation: increasing concentrations of antagonist.

The target in data set [5] is T1, MRGPRX2. Kind of data set: Calcium mobilization (FLIPR TETRA) in BacMam-transduced U2OS cells. In kind it is cell-based. Details: expressed in transfected cells; host or cells: U2OS transduced with BacMam virus; Agonist activity: dose or concentration left out as unconfirmed. Particulars: for Agonist activity: up to the highest concentration tested. As for the experimental part:
as §1, §2, §3, §4

The target in data set [6] is T1, MRGPRX2. Kind of data set: LAD2 mast cell degranulation (β-hexosaminidase release), MRGPRX2 ligand-mediated. In kind it is cell-based. More on the design: human mast cells expressing endogenous MRGPRX2; endogenous in cells; […]. Particulars: for IC50: mean ± SEM; for EC50: agonist mode, no mast cell activator, up to 50 μM tested, read-out: Activation of LAD-2 Cells EC50; for Kb: read-out: pA2 (apparent antagonist affinity, Schild analysis) (converted); for Nature of antagonism: vs Substance P concentration response curves. Here is the method: Two different in vitro human mast cell systems were studied: (a) a human mast cell line, LAD2, established from a patient with mast cell sarcoma; and (b) mast cells freshly isolated from human skin. MRGPRX2 antagonist IC50 values were determined in the LAD2 mast cell degranulation assay using approximately EC80 concentrations for five different MRGPRX2 activating ligands (see Supplementary Figure 1 ).

The mark [7] stands for this setting: Mast Cell Activator: Compound 48/80 at approx. EC80, read-out: Inhibition of Ligand Mediated LAD-2 Cell Activation and Degranulation IC50.

T2 sequence (Q4QXU5 whole entry): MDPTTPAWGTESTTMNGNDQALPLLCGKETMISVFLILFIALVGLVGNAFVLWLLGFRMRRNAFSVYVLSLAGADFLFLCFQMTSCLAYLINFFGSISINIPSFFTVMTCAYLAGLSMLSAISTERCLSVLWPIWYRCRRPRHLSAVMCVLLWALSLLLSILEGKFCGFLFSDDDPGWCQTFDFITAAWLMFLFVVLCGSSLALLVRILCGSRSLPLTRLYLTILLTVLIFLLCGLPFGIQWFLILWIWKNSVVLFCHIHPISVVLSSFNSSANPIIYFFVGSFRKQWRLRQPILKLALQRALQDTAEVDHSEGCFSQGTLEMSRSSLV
From the text for C3aR1: Release of β-hexosaminidase from LAD2 cells was followed as a measurement of mast cell degranulation using a method described previously ([4]).
Potency data are presented as mean ± SEM.

In the case of `CC1(C)C(C(=O)Nc2ccccn2)C1(C)C` [Compound A], on MRGPRX2 [1], the “Concentration achieving complete blockade of Substance P response (histamine release)” value is 3 µM. Moreover, the values for the Agonist activity result (in data set [2]; at MRGPRX2 [5]) were “weak agonist activities” and “No agonist activity was detected”, respectively. Also, in data set [2], the Antagonist activity result is reported as “very weak antagonist activities”. Moreover, the “Activity on ion channel and enzyme targets” value in data set [3] is “inactive”. Moreover, the IC50 was 50 nM at MRGPRX2 [4]; more than 50000 nM against C3aR1; 44.6 nM on MRGPRX2 [5]; 22.8 nM against MRGPRX2 [6] (Inhibition of Ligand Mediated LAD-2 Cell Activation and Degranulation IC50, Mast Cell Activator: Cortistatin-14 at approx. EC80); 61.2 ± 14.3 nM on MRGPRX2 [6] (Inhibition of Ligand Mediated LAD-2 Cell Activation and Degranulation IC50, Mast Cell Activator: PACAP-27 at approx. EC80); 63.3 ± 6.2 nM against MRGPRX2 [6] (Inhibition of Ligand Mediated LAD-2 Cell Activation and Degranulation IC50, Mast Cell Activator: PAMP-12 at approx. EC80). Besides, the IC50 against MRGPRX2 [6] (Inhibition of Ligand Mediated LAD-2 Cell Activation and Degranulation IC50, Mast Cell Activator: Substance P (1 μM, approx. EC80)) was found to be 32.4 nM; on MRGPRX2 [6] (setting [7]), 232 ± 26 nM. The EC50 at MRGPRX2 [4] was more than 30000 nM; at MRGPRX2 [6] it was more than 50000 nM. Also, the “Effect on C3a-stimulated LAD2 degranulation” value at C3aR1 is “lack of an effect”. Also, at MRGPRX2 [6], the Kb is 25.7 nM. The Nature of antagonism result at MRGPRX2 [6] is reported as “partly surmountable”.
With `C[C@@H](C(=O)Nc1cnc(Oc2ccc(F)cc2F)cn1)N1CCC(F)(F)[C@@H](c2cc[n+]([O-])cc2)C1` [Compound B], on MRGPRX2 [1], the “Concentration achieving complete blockade of Substance P response (histamine release)” value stood at 0.03 µM. The Agonist activity entry in data set [2] is “weak agonist activities”; at MRGPRX2 [5] it was “No agonist activity was detected”. Further, the Antagonist activity result in data set [2] is “very weak antagonist activities”. Moreover, in data set [3], the “Activity on ion channel and enzyme targets” value was “inactive”. Besides, the IC50 was 2.9 nM on MRGPRX2 [4] (Cortistatin 14 at approx. EC80, mean ± SEM of 66 (Compound A) or 22 (Compound B) experiments, read-out: Inhibition of Cort-14 Mediated MRGPRX2 Activation IC50); more than 50000 nM at C3aR1; 3.6 nM at MRGPRX2 [5] (Cortistatin 14 at approx. EC80, U2OS cells, read-out: Antagonist IC50 against Cortistatin 14); 4 ± 0.3 nM on MRGPRX2 [6] (setting [7]); 1 nM at MRGPRX2 [6] (Mast Cell Activator: Cortistatin-14 at approx. EC80, read-out: Inhibition of Ligand Mediated LAD-2 Cell Activation and Degranulation IC50); 1.8 ± 0.1 nM on MRGPRX2 [6] (Mast Cell Activator: PACAP-27 at approx. EC80, read-out: Inhibition of Ligand Mediated LAD-2 Cell Activation and Degranulation IC50). The concentration for half-maximal inhibition (IC50) was 2.6 ± 0.1 nM on MRGPRX2 [6] (Mast Cell Activator: PAMP-12 at approx. EC80, read-out: Inhibition of Ligand Mediated LAD-2 Cell Activation and Degranulation IC50); 1.8 ± 0.1 nM at MRGPRX2 [6] (Mast Cell Activator: Substance P (1 μM, approx. EC80), read-out: Inhibition of Ligand Mediated LAD-2 Cell Activation and Degranulation IC50). Besides, the EC50 on MRGPRX2 [4] is more than 30000 nM; at MRGPRX2 [6], more than 50000 nM. Further, the “Effect on C3a-stimulated LAD2 degranulation” value at C3aR1 is recorded as “lack of an effect”. Also, at MRGPRX2 [6] (7.6 nM antagonist), the “Effect on Substance P maximal response” value is “dampen SP’s maximal response”. The “Effect on degranulation response to highest Substance P concentration” value at MRGPRX2 [6] (20 nM antagonist, Substance P 50 μM) is on record as “abolish the degranulation response”. In addition, on MRGPRX2 [6], the Kb is 0.891 nM. For the same molecule, the Nature of antagonism result on MRGPRX2 [6] is “insurmountable”.
